In patent US20060058384A1, “Treatment of IGA nephropathy with omega-3 fatty acids” (PRONOVA BIOCARE, A.S., priority 2004, published 2006):
“Also recorded” adds a separate entry of the source.

System: patients with IgA nephropathy
Assay: Placebo-controlled clinical trial in IgA nephropathy: GFRest, UP/C and Composite Response/Outcome Scores
Type: in vivo, human
Text: In a multicenter, placebo-controlled, double blind clinical trial, we evaluated the efficacy of a 24-month stable daily dose (4 grams per day) of a highly purified preparation of O3 (especially icosapent & doconexent).
We performed secondary analyses based on clinical response scores derived from changes in the level of proteinuria (defined by urine protein to creatinine ratios in first morning urine specimens) and GFRest. Composite Response Score, which represented changes in proteinuria and GFR scores were also calculated.
This was a placebo-controlled, prospective clinical trial. After fulfilling all entry criteria, patients were assigned to one of three treatment arms, as described in our paper discussing the primary analysis of this study.
Randomization of patients was stratified by hypertensive status and blocked randomization was used within each stratum.
Estimation of GFR and level of proteinuria. The glomerular filtration rate (GFR) was estimated at 6 monthly intervals in each patient using standard age-appropriate formulas. […] Serum creatinine measurements were measured by HPLC. […]
Statistical analysis: After it was noted that there was wide variation in the plasma phospholipid fatty acid profiles in patients receiving icosapent/doconexent (FIG. 1), a series of secondary analyses was conducted to determine the cause for this variability and to evaluate if the fatty acid profiles affected patient outcome. Clinical response scores were determined for each patient based on changes in the estimated GFR (−5 to +5) and urine protein/creatinine ratios (−5 to +5) at each 6 month visit up to 36 months. Composite response scores (−10 to +10) at each time interval were then determined based on the patients' combined GFR and UP/C Response Scores—with equal weight given to each (Table 1). Clinical outcome scores were then calculated based on the mean of the Composite Response Scores at 18 and 24 months. The dosage of the study drugs given to each patient was calculated as g/kg body weight and g/m^2 BSA. […]

C[C@]12C=CC(=O)C=C1CC[C@@H]1[C@@H]2C(=O)C[C@@]2(C)[C@H]1CC[C@]2(O)C(=O)CO [prednisone]
Composite Response Scores, treatment arm as a whole (6-month intervals, 0 to 36 months, FIG. 2): significantly better; also recorded: better response
Primary analysis: decrease of GFR to less than 60% of baseline (24-month treatment, O3 4 grams per day, prednisone alternate-day): did not show a statistically significant benefit
Secondary analysis: efficacy by clinical response scores (proteinuria and GFRest) (secondary analyses): effective
